From patent US9029328B2, “Methods for cardioprotection and cardioregeneration with dimers of EGF family ligands” (The Brigham and Women's Hospital, Inc., priority 2010, dated 2015)
pKd: −log10 of the molar value.

Experiments:
[1] = system: HeLa cells; test: ERK phosphorylation in HeLa cells (EGF containing ligands); format: cell-based; conditions: inhibitor control
Experimental: (§1) FIG. 3. Bioactivity of engineered ligands. Stimulation of ERK phosphorylation by engineered EGF (C1, C2) and NRG (C3, C4) compared to native protein. Inhibition of phosphorylation was accomplished via a pan-ErbB kinase inhibitor N-(4-((3-Chloro-4-fluorophenyl)amino)-pyrido[3,4-d]pyrimidin-6-yl)2-butynamide (i), indicating specificity; FIG. 3A (HeLa), FIG. 3B (MCF-7).
(§2) Proteins are produced using a maltose binding protein (MBP) tagged system (pMAL-c2X, New England Biolabs). Proteins are analyzed by Coomassie staining, immunoblotting, mass spectrometry, absorbance at 280 nm, and in vitro cell response versus wild type ligands EGF and NRG. Specificity for ErbB receptor activation was further assessed by including inhibitor controls using the pan-ErbB kinase inhibitor N-(4-((3-Chloro-4-fluorophenyl)amino)-pyrido[3,4-d]pyrimidin-6-yl)-2-butynamide. Bioactivity and ErbB specificity were validated in HeLa and MCF-7 cells (for EGF and NRG containing ligands, respectively) (FIG. 3). HeLa cells express EGFR and ErbB2 and are responsive to EGF while MCF-7 cells express ErbB3 and ErbB4 and are responsive to NRG.

[2] = system: MCF-7 cells; test: ERK phosphorylation in MCF-7 cells (NRG containing ligands); format: cell-based; conditions: inhibitor control
Experimental: as §1, §2

[3] = FDA label; cited from earlier work
[4] = system: ErbB2 and ErbB3 receptors in H3255 cells; test: Western blot of pHER2 and pHER3 in H3255 cell lysates; format: cell-based
From the text: FIG. 9. Western blot analysis of pHER2 and pHER3 in lysates from H3255 cells stimulated by monovalent NRG (NC) or bivalent NRG (NN) (data representative of 2 independent experiments) (FIG. 9B). A possible mechanism for the observed differences in monovalent NRG compared to bivalent NN, in which NN fosters homodimerization or homo-oligomerization of HER3 at the expense of heterodimers with HER2, is illustrated in the schematic (FIG. 9A).
This hypothesis is further supported by the use of H3255 cells, which express high levels of the ErbB3 receptor and low levels of the ErbB4 receptor. Because the potential phenotypic effects associated with dimerization, oligomerization, and/or aggregation are more apparent with ErbB3 than ErbB4, this setting was chosen for proof-of-concept experiments.

[5] = biological target: T1, soluble crosslinked HER3 homodimers (ErbB3) (Homo sapiens, UniProt P21860); test: Aggregation of soluble ErbB3 by dynamic light scattering; format: binding; conditions: various ligand:ErbB3 ratios, n=10
T1 construct: exposed to soluble crosslinked HER3 homodimers (ErbB3)
Experimental: FIG. 10. Specific binding of bivalent NN to HER3. Bivalent NN, monovalent NRG
(NC and NN), native NRG, or bivalent EN were exposed to soluble crosslinked HER3 homodimers (ErbB3) and hydrodynamic radius (RH) at various ligand:ErbB3 ratios. Receptor aggregation was determined by dynamic light scattering (n=10).

[6] = system: infarcted hearts; conditions: nanofiber delivery, n=7, from reference [10]; cited from earlier work
[7] = system: HER3 and HER4 receptors; test: NRG relative affinity for HER3 and HER4 versus HER1; format: binding
From the text: Accordingly, in the context of cardiomyocytes, receptor signaling bias can be achieved, for example, through use of a ligand with high affinity for HER4/ErbB4. One such ligand is neuregulin-1β (NRG or NRG1, as used herein). To this end, the invention provides an NRG ligand homodimer. This homodimer induces HER4 homodimerization due to the high affinity of NRG for HER4/ErbB4. NRG binds HER3 and HER4 receptors with approximately 5000-fold greater affinity than HER1. ErbB3 is not expressed on cardiomyocytes however so exposure of these cells to an NRG dimer will stimulate the dimerization of HER4 homodimers without interference from HER3 receptors.

[8] = system: hTERT-immortalized human mesenchymal stem cells (hTMSC); test: ERK phosphorylation in hTMSC, western analysis with densitometry; format: cell-based
Experimental: FIG. 4. Cellular responses differ between native and bivalent NRG. (A) hTMSC were exposed to native (rhNRG), monovalent (C3, C4) and bivalent (NN) NRG in culture. ERK phosphorylation was measured via western analysis and quantified by densitometry.
Since NRG has high affinity for ErbB3 as well as ErbB4, and since ErbB3 is kinase-deficient, recruitment of ErbB3 homodimers via bivalent NRG should produce a null signaling outcome, whereas native or monovalent engineered NRG should be capable of stimulating ERK phosphorylation in these cells via ErbB2/ErbB3 mediated signaling.

[9] = system: Neonatal rat cardiomyocytes (NRCM); test: Cardiomyocyte viability under doxorubicin, cell titer blue assay; format: cell-based; conditions: FIGS. 6 and 7; monomers compared with dimers
Experimental: FIG. 5. Bivalent NRG attenuates doxorubicin-induced toxicity to cardiomyocytes in vitro. (A) Neonatal rat cardiomyocytes (NRCM) were simultaneously exposed to doxorubicin (1 μM) and either fibroblast growth factor-1 (FGF1, a known NRCM mitogen), native NRG (NRG), or bivalent NRG (NRG-NRG) at the indicated doses. […] (B) Bivalent NRG may preferentially activate the PI3K/Akt pro-survival signaling pathway.
FIG. 6 is a bar graph showing the effect of NRG monomers and NRG homodimers on cardiomyocyte viability in the presence of doxorubicin.
FIG. 7 is a bar graph showing the effect of NRG monomers, NRG homodimers, EGF-NRG heterodimers, and EGF and NRG monomers on cardiomyocyte viability in the presence of doxorubicin.
The activity of engineered ErbB receptor ligands has been verified in multiple cell systems. ErbB receptor profiles in cardiomyocytes are distinct. The efficacy of engineered bivalent ligands has been tested on cardiomyocytes in culture. Specifically, the effects of native and bivalent NRG on cardiomyocytes exposed to DOX-induced cytotoxicity were examined. […] If this effect of bivalent NRG is validated in vivo, it could have significant potential as a new cardioprotective agent against DOX-induced cardiomyopathy.
FIGS. 6 and 7 show similar results.

[10] = biological target: ErbB4 (Homo sapiens, UniProt Q15303); conditions: NRG binding to ErbB4, reference [18]; cited from earlier work
[11] = biological target: ErbB1 (Homo sapiens, UniProt P00533); conditions: NRG binding to ErbB1, reference [18]; cited from earlier work

T1 sequence (P21860 20-643 limits assumed): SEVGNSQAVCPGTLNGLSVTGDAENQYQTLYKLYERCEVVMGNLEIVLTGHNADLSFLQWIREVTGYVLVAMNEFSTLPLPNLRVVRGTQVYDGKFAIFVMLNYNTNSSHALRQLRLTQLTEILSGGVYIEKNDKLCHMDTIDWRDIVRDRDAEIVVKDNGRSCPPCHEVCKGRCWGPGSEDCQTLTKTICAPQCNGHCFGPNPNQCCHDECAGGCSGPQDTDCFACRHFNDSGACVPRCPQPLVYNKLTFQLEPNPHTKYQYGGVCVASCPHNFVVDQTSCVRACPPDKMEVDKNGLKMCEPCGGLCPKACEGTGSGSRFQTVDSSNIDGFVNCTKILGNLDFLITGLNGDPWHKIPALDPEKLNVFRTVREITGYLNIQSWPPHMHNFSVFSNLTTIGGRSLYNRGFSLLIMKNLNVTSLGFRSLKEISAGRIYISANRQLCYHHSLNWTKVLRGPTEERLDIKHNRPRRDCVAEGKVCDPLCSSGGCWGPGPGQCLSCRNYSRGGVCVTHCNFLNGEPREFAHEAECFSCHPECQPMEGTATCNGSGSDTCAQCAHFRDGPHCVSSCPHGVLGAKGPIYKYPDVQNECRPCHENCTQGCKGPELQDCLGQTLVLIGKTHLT
ErbB4, sequence (Q15303 26-1308, species assumed): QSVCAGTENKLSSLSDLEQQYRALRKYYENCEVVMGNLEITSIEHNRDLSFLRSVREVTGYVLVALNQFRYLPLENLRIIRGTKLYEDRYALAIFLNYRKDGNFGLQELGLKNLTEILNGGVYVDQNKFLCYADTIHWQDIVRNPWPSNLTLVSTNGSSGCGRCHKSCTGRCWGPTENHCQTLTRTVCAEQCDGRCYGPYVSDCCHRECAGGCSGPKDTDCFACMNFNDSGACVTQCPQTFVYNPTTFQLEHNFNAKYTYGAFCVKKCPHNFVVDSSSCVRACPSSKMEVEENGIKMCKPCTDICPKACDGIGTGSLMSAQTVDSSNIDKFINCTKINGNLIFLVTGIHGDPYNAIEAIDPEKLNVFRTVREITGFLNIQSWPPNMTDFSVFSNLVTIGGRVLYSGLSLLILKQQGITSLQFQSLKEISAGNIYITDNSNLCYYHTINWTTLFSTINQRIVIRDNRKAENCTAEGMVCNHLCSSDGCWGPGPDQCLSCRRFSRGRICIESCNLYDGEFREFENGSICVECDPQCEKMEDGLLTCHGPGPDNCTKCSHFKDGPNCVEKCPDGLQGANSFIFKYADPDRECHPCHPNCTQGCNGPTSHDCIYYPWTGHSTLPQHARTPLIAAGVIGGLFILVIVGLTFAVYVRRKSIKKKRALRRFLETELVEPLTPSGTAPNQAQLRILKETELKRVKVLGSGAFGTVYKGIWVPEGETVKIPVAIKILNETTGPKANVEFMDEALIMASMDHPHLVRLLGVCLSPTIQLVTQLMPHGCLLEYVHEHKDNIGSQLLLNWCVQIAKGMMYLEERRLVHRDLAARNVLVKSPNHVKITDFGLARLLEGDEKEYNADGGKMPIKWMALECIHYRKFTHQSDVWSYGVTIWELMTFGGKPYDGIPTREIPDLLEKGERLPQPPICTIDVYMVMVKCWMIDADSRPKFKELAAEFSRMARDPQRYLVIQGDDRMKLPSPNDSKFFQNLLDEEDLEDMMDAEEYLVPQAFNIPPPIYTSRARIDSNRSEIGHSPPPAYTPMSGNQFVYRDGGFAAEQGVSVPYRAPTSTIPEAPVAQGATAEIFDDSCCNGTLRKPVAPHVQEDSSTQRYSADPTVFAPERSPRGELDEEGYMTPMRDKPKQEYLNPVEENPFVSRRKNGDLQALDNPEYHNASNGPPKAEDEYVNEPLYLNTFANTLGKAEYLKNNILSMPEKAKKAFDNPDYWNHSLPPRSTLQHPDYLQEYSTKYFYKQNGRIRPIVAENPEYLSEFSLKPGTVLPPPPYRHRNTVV

CC#CC(=O)Nc1cc2c(Nc3ccc(F)c(Cl)c3)ncnc2cn1 [N-(4-((3-Chloro-4-fluorophenyl)amino)-pyrido[3,4-d]pyrimidin-6-yl)-2-butynamide]
inhibition of ligand-induced pERK activation [1]: specifically inhibited
inhibition of ligand-induced pERK activation [2]: specifically inhibited

COc1cccc2c1C(=O)c1c(O)c3c(c(O)c1C2=O)C[C@@](O)(C(=O)CO)C[C@@H]3O[C@H]1C[C@H](N)[C@H](O)[C@H](C)O1 [doxorubicin]
cumulative dose at which risk of developing impaired myocardial function increases [3]: about 300 mg/m^2

NC: Monovalent NRG used as comparator to bivalent NN
phosphorylation of ErbB2 and ErbB3 receptors [4]: stimulates phosphorylation
aggregation of soluble ErbB3 receptors (hydrodynamic radius) [5]: Only bivalent NN induced aggregation

SDF-1(S4V): Protease resistant form of SDF-1, delivered via self-assembling peptide nanofibers
capillary density (isolectin-positive staining) [6]: increased capillary density

neuregulin-1β [native NRG]
greater affinity for HER3 and HER4 than HER1 [7]: approximately 5000 fold
ERK phosphorylation (pERK response) [8]: dose-dependent increase in ERK phosphorylation
cardiomyocyte viability in the presence of doxorubicin [9]: significantly (p<0.05) decreased
aggregation of soluble ErbB3 receptors (hydrodynamic radius) [5]: Only bivalent NN induced aggregation
pKd [10]: ~9.15
pKd [11]: ~5.26
